{"source": "PubChem BioAssay AID330", "about": "(DTP/NCI, 2004)", "system": "P388 leukemia ip, CD2F1 mice, survival T/C", "assay": "NCI In Vivo Anticancer Drug Screen. Data for tumor model P388 Leukemia (intraperitoneal) in CD2F1 (CDF1) mice", "settings": "endpoint: median survival time, higher = longer survival", "in_short": "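Mice carrying the transplanted tumor received test compound or vehicle. Survival was recorded in each group, and the value is the treated-group measurement divided by that of the vehicle-treated control group.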", "note": "Several values for one entry are separate records, joined by “and”; a condition that tells them apart may be missing. Identical values can stand only once. Toxic doses and inconclusive results are not listed.", "data": [{"molecule": "COc1cccc2c1C(=O)c1c(O)c3c(c(O)c1C2=O)CC(O)(C(=O)C(C)C)CC3OC1CC(N)C(O)C(C)O1", "note": "(configuration not stated)", "values": [{"measurement": "T/C", "setting": "dose: 3.13 mg/kg/injection, schedule: Q01DX009 (ip), vehicle: water", "value": "117 % of control"}, {"measurement": "T/C", "setting": "dose: 4.7 mg/kg/injection, schedule: Q04DX003 (ip), vehicle: water", "value": "115 % of control"}, {"measurement": "T/C", "setting": "dose: 6.25 mg/kg/injection, schedule: Q01DX009 (ip), vehicle: water", "value": "117 % of control"}, {"measurement": "T/C", "setting": "dose: 9.4 mg/kg/injection, schedule: Q04DX003 (ip), vehicle: water", "value": "110 % of control"}, {"measurement": "T/C", "setting": "dose: 18.8 mg/kg/injection, schedule: Q04DX003 (ip), vehicle: water", "value": "101 % of control"}, {"measurement": "T/C", "setting": "dose: 75.0 mg/kg/injection, schedule: Q04DX003 (ip), vehicle: water", "value": "92 % of control"}]}, {"molecule": "Cc1cc(=O)c(C(=O)NC(=O)c2ccccn2)c(C)o1", "values": [{"measurement": "T/C", "setting": "dose: 50.0 mg/kg/injection, schedule: Q01DX005 (ip), vehicle: Klucel (hydroxypropylcellulose) (HPC)", "value": "101 % of control"}, {"measurement": "T/C", "setting": "dose: 100.0 mg/kg/injection, schedule: Q01DX005 (ip), vehicle: Klucel (hydroxypropylcellulose) (HPC)", "value": "101 % of control"}, {"measurement": "T/C", "setting": "dose: 200.0 mg/kg/injection, schedule: Q01DX005 (ip), vehicle: Klucel (hydroxypropylcellulose) (HPC)", "value": "107 % of control"}]}, {"molecule": "CCCCc1cc(-c2ccc(C)cc2)c(CCCC)c2c1-c1cccc3cccc-2c13", "values": [{"measurement": "T/C", "setting": "dose: 100.0 mg/kg/injection, schedule: Q04DX003 (ip), vehicle: saline with Tween-80", "value": "98 % of control"}, {"measurement": "T/C", "setting": "dose: 200.0 mg/kg/injection, schedule: Q04DX003 (ip), vehicle: saline with Tween-80", "value": "91 % of control"}, {"measurement": "T/C", "setting": "dose: 400.0 mg/kg/injection, schedule: Q04DX003 (ip), vehicle: saline with Tween-80", "value": "92 % of control"}]}, {"molecule": "CC(C)CCCCCCCCCCCCC(=O)NCC(=O)NC1C(O)C(O)C(Nc2ncnc3nc[nH]c23)OC1C(O)CO", "note": "(configuration not stated)", "values": [{"measurement": "T/C", "setting": "dose: 0.06 mg/kg/injection, schedule: Q01DX009 (ip), vehicle: Klucel (hydroxypropylcellulose) (HPC)", "value": "100 % of control"}, {"measurement": "T/C", "setting": "dose: 0.13 mg/kg/injection, schedule: Q01DX009 (ip), vehicle: Klucel (hydroxypropylcellulose) (HPC)", "value": "100 % of control"}, {"measurement": "T/C", "setting": "dose: 0.25 mg/kg/injection, schedule: Q01DX009 (ip), vehicle: Klucel (hydroxypropylcellulose) (HPC)", "value": "100 % of control"}, {"measurement": "T/C", "setting": "dose: 0.25 mg/kg/injection, schedule: Q01DX009 (ip), vehicle: distilled water + alcohol", "value": "154 % of control"}, {"measurement": "T/C", "setting": "dose: 0.25 mg/kg/injection, schedule: Q01DX009 (ip), vehicle: saline with Tween-80", "value": "158 % of control"}, {"measurement": "T/C", "setting": "dose: 0.25 mg/kg/injection, schedule: Q03HX008 (ip), vehicle: Klucel (hydroxypropylcellulose) (HPC)", "value": "100 % of control"}, {"measurement": "T/C", "setting": "dose: 0.25 mg/kg/injection, schedule: Q03HX016 (ip), vehicle: Klucel (hydroxypropylcellulose) (HPC)", "value": "100 % of control"}, {"measurement": "T/C", "setting": "dose: 0.25 mg/kg/injection, schedule: Q03HX024 (ip), vehicle: Klucel (hydroxypropylcellulose) (HPC)", "value": "95 % of control"}, {"measurement": "T/C", "setting": "dose: 0.5 mg/kg/injection, schedule: Q01DX009 (ip), vehicle: Klucel (hydroxypropylcellulose) (HPC)", "value": "100 % of control"}, {"measurement": "T/C", "setting": "dose: 0.5 mg/kg/injection, schedule: Q01DX009 (ip), vehicle: distilled water + Tween-80", "value": "154 % of control"}, {"measurement": "T/C", "setting": "dose: 0.5 mg/kg/injection, schedule: Q01DX009 (ip), vehicle: saline with Tween-80", "value": "151 % of control"}, {"measurement": "T/C", "setting": "dose: 0.5 mg/kg/injection, schedule: Q01DX009 (oral), vehicle: Klucel (hydroxypropylcellulose) (HPC)", "value": "100 % of control"}, {"measurement": "T/C", "setting": "dose: 0.5 mg/kg/injection, schedule: Q03HX008 (ip), vehicle: Klucel (hydroxypropylcellulose) (HPC)", "value": "100 % of control"}, {"measurement": "T/C", "setting": "dose: 0.5 mg/kg/injection, schedule: Q03HX016 (ip), vehicle: Klucel (hydroxypropylcellulose) (HPC)", "value": "100 % of control"}, {"measurement": "T/C", "setting": "dose: 0.5 mg/kg/injection, schedule: Q03HX024 (ip), vehicle: Klucel (hydroxypropylcellulose) (HPC)", "value": "90 % of control"}, {"measurement": "T/C", "setting": "dose: 1.0 mg/kg/injection, schedule: Q01DX009 (ip), vehicle: Klucel (hydroxypropylcellulose) (HPC)", "value": "100 % of control"}, {"measurement": "T/C", "setting": "dose: 1.0 mg/kg/injection, schedule: Q01DX009 (ip), vehicle: distilled water + alcohol", "value": "110 % of control"}, {"measurement": "T/C", "setting": "dose: 1.0 mg/kg/injection, schedule: Q01DX009 (ip), vehicle: saline with Tween-80", "value": "101 % of control and 109 % of control"}, {"measurement": "T/C", "setting": "dose: 1.0 mg/kg/injection, schedule: Q01DX009 (oral), vehicle: Klucel (hydroxypropylcellulose) (HPC)", "value": "100 % of control"}, {"measurement": "T/C", "setting": "dose: 1.0 mg/kg/injection, schedule: Q03HX008 (ip), vehicle: Klucel (hydroxypropylcellulose) (HPC)", "value": "100 % of control"}, {"measurement": "T/C", "setting": "dose: 1.0 mg/kg/injection, schedule: Q03HX016 (ip), vehicle: Klucel (hydroxypropylcellulose) (HPC)", "value": "100 % of control"}, {"measurement": "T/C", "setting": "dose: 1.0 mg/kg/injection, schedule: Q03HX024 (ip), vehicle: Klucel (hydroxypropylcellulose) (HPC)", "value": "95 % of control"}, {"measurement": "T/C", "setting": "dose: 2.0 mg/kg/injection, schedule: Q01DX001 (ip), vehicle: Klucel (hydroxypropylcellulose) (HPC)", "value": "100 % of control"}, {"measurement": "T/C", "setting": "dose: 2.0 mg/kg/injection, schedule: Q01DX009 (ip), vehicle: Klucel (hydroxypropylcellulose) (HPC)", "value": "151 % of control"}, {"measurement": "T/C", "setting": "dose: 2.0 mg/kg/injection, schedule: Q01DX009 (ip), vehicle: saline with Tween-80", "value": "89 % of control"}, {"measurement": "T/C", "setting": "dose: 2.0 mg/kg/injection, schedule: Q01DX009 (oral), vehicle: Klucel (hydroxypropylcellulose) (HPC)", "value": "100 % of control"}, {"measurement": "T/C", "setting": "dose: 2.0 mg/kg/injection, schedule: Q03HX008 (ip), vehicle: Klucel (hydroxypropylcellulose) (HPC)", "value": "100 % of control"}, {"measurement": "T/C", "setting": "dose: 2.0 mg/kg/injection, schedule: Q03HX016 (ip), vehicle: Klucel (hydroxypropylcellulose) (HPC)", "value": "100 % of control"}, {"measurement": "T/C", "setting": "dose: 2.0 mg/kg/injection, schedule: Q03HX024 (ip), vehicle: Klucel (hydroxypropylcellulose) (HPC)", "value": "95 % of control"}, {"measurement": "T/C", "setting": "dose: 2.0 mg/kg/injection, schedule: Q04DX003 (ip), vehicle: Klucel (hydroxypropylcellulose) (HPC)", "value": "100 % of control"}, {"measurement": "T/C", "setting": "dose: 2.0 mg/kg/injection, schedule: Q08DX002 (ip), vehicle: Klucel (hydroxypropylcellulose) (HPC)", "value": "100 % of control"}, {"measurement": "T/C", "setting": "dose: 4.0 mg/kg/injection, schedule: Q01DX001 (ip), vehicle: Klucel (hydroxypropylcellulose) (HPC)", "value": "100 % of control"}, {"measurement": "T/C", "setting": "dose: 4.0 mg/kg/injection, schedule: Q01DX009 (oral), vehicle: Klucel (hydroxypropylcellulose) (HPC)", "value": "100 % of control"}, {"measurement": "T/C", "setting": "dose: 4.0 mg/kg/injection, schedule: Q04DX003 (ip), vehicle: Klucel (hydroxypropylcellulose) (HPC)", "value": "100 % of control"}, {"measurement": "T/C", "setting": "dose: 4.0 mg/kg/injection, schedule: Q08DX002 (ip), vehicle: Klucel (hydroxypropylcellulose) (HPC)", "value": "100 % of control"}, {"measurement": "T/C", "setting": "dose: 8.0 mg/kg/injection, schedule: Q01DX001 (ip), vehicle: Klucel (hydroxypropylcellulose) (HPC)", "value": "100 % of control"}, {"measurement": "T/C", "setting": "dose: 8.0 mg/kg/injection, schedule: Q04DX003 (ip), vehicle: Klucel (hydroxypropylcellulose) (HPC)", "value": "100 % of control"}, {"measurement": "T/C", "setting": "dose: 8.0 mg/kg/injection, schedule: Q08DX002 (ip), vehicle: Klucel (hydroxypropylcellulose) (HPC)", "value": "100 % of control"}, {"measurement": "T/C", "setting": "dose: 16.0 mg/kg/injection, schedule: Q01DX001 (ip), vehicle: Klucel (hydroxypropylcellulose) (HPC)", "value": "100 % of control"}, {"measurement": "T/C", "setting": "dose: 16.0 mg/kg/injection, schedule: Q01DX001 (oral), vehicle: Klucel (hydroxypropylcellulose) (HPC)", "value": "100 % of control"}, {"measurement": "T/C", "setting": "dose: 16.0 mg/kg/injection, schedule: Q04DX003 (ip), vehicle: Klucel (hydroxypropylcellulose) (HPC)", "value": "100 % of control"}, {"measurement": "T/C", "setting": "dose: 16.0 mg/kg/injection, schedule: Q08DX002 (ip), vehicle: Klucel (hydroxypropylcellulose) (HPC)", "value": "104 % of control"}, {"measurement": "T/C", "setting": "dose: 32.0 mg/kg/injection, schedule: Q01DX001 (oral), vehicle: Klucel (hydroxypropylcellulose) (HPC)", "value": "100 % of control"}, {"measurement": "T/C", "setting": "dose: 64.0 mg/kg/injection, schedule: Q01DX001 (oral), vehicle: Klucel (hydroxypropylcellulose) (HPC)", "value": "100 % of control"}, {"measurement": "T/C", "setting": "dose: 128.0 mg/kg/injection, schedule: Q01DX001 (oral), vehicle: Klucel (hydroxypropylcellulose) (HPC)", "value": "100 % of control"}]}]}
